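Cultured in 96-well plates, cells were exposed to test compound for 48 hours across five concentrations. TGI is the concentration that stops growth completely.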

Among the data in PubChem BioAssay (NCI) are TGI values, retold here.

Among the test systems are KM12 colon; EKVX NSCLC; CCRF-CEM leukemia; OVCAR-3 ovarian; SK-MEL-2 melanoma.
Common to all, as to experiment: growth of human tumour cells (NCI), 48 h

Take `Cc1ccc(OCC2OC(n3cnc4c(Cl)nc(Cl)nc43)CC2Oc2ccc(C)cc2)cc1` (stereo not given): the TGI in the test with KM12 colon was 3.09 µM; in the test on EKVX NSCLC, 14.9 µM; with CCRF-CEM leukemia, more than 100 µM; with OVCAR-3 ovarian, 6 µM; with SK-MEL-2 melanoma it was 5.26 µM.

As to `Clc1ccc(OCc2nnc3sc(-c4ccc(-c5ccc(Cl)cc5Cl)o4)nn23)cc1`, the TGI with KM12 colon, in the test with EKVX NSCLC, with CCRF-CEM leukemia, with OVCAR-3 ovarian and in the test with SK-MEL-2 melanoma was more than 100 µM in each case.

`O=C(NNC(=S)NCc1ccccc1)c1csc(NC(=S)NC2CCCCC2)n1`: the TGI in the test on KM12 colon was more than 100 µM; in the test with EKVX NSCLC, more than 100 µM; in the test on CCRF-CEM leukemia, more than 100 µM; in the test on OVCAR-3 ovarian it was more than 100 µM; with SK-MEL-2 melanoma, 65.7 µM.

In the case of `CCN(CC)C1C(=O)NC1C#Cc1ccccc1` (stereo not given), the TGI in the test on KM12 colon, in the test with EKVX NSCLC, in the test on CCRF-CEM leukemia, in the test on OVCAR-3 ovarian and in the test on SK-MEL-2 melanoma was more than 100 µM throughout.

Consider `CC(C)Oc1cccc(N2C(=NCCc3c[nH]c4ccccc34)Nc3ccncc3S2(=O)=O)c1`, for which the TGI in the test with KM12 colon, with EKVX NSCLC, with CCRF-CEM leukemia, with OVCAR-3 ovarian and with SK-MEL-2 melanoma was more than 100 µM throughout.

On to `CCN(CC)c1ccc(/C=C/C(=O)c2cc(C(C)(C)C)c(O)c(C(C)(C)C)c2)cc1`, for which the TGI in the test on KM12 colon is more than 30.3 µM; with EKVX NSCLC, more than 100 µM; in the test with CCRF-CEM leukemia, more than 66 µM; in the test with OVCAR-3 ovarian, more than 100 µM; with SK-MEL-2 melanoma it was more than 71.5 µM.

For the molecule `CCCCCCCCCCCCCCCCCCNc1nc(=O)n(C2CC(O)C(COP(=O)(O)OCC3OC(n4ccc(N)nc4=O)C(O)C3O)O2)cc1F` (stereo not given), the TGI with KM12 colon, in the test with EKVX NSCLC, in the test with CCRF-CEM leukemia, in the test with OVCAR-3 ovarian and in the test on SK-MEL-2 melanoma was more than 100 µM throughout.

Consider `O=C1NC(N2CCCCC2)=N/C1=C\c1ccc(Cl)cc1`, for which the TGI in the test on KM12 colon, in the test on EKVX NSCLC, in the test with CCRF-CEM leukemia, with OVCAR-3 ovarian and with SK-MEL-2 melanoma was more than 100 µM throughout.

Take `c1ccc(C(=NCCC2CNc3ccccc32)c2ccccc2)cc1` (stereo not given): the TGI in the test with KM12 colon, in the test with EKVX NSCLC, with CCRF-CEM leukemia, in the test on OVCAR-3 ovarian and in the test with SK-MEL-2 melanoma was more than 100 µM throughout.

For the molecule `O=c1[nH]c(=O)n(C2CC(O)C(CO)O2)c2nc3ccc4cc5ccccc5cc4c3nc12` (stereo not given), the TGI in the test on KM12 colon, with EKVX NSCLC, in the test on CCRF-CEM leukemia, in the test on OVCAR-3 ovarian and in the test with SK-MEL-2 melanoma was more than 100 µM throughout.

Consider `ON[C@H]1C[C@@H](n2cnc3c(NC4CC4)ncnc32)[C@H](O)[C@@H]1O`, for which the TGI in the test with KM12 colon, with EKVX NSCLC, with CCRF-CEM leukemia, with OVCAR-3 ovarian and with SK-MEL-2 melanoma was more than 100 µM throughout.

Consider `ONC1=Nc2ccccc2C(=S)N2CSCC12` (stereo not given), for which the TGI in the test with KM12 colon, with EKVX NSCLC, in the test on CCRF-CEM leukemia, with OVCAR-3 ovarian and in the test with SK-MEL-2 melanoma was more than 100 µM in each case.

Consider `CC1(c2ccc(Cl)s2)CC(c2ccc(Cl)s2)=C(C#N)C(=C(C#N)C#N)N1` (stereo not given), for which the TGI with KM12 colon is 36 µM; in the test with EKVX NSCLC, 32.6 µM; in the test with CCRF-CEM leukemia, more than 100 µM; with OVCAR-3 ovarian, 28.4 µM; in the test on SK-MEL-2 melanoma, 47.2 µM.

For the molecule `O=C1c2ccccc2C2C1C(c1ccccc1)C1(Cc3ccccc3C1=O)C2c1ccccc1` (stereo not given), the TGI in the test with KM12 colon, in the test on EKVX NSCLC, in the test on CCRF-CEM leukemia, with OVCAR-3 ovarian and in the test with SK-MEL-2 melanoma was more than 100 µM each time.

For the molecule `CC(C)(C)OC(=O)NCCNCCNc1ccccc1`, the TGI with KM12 colon, with EKVX NSCLC, with CCRF-CEM leukemia, in the test on OVCAR-3 ovarian and in the test with SK-MEL-2 melanoma was more than 100 µM each time.

Turning to `Cc1ccnc2[nH]c(-c3ccc(F)cc3)cc(=O)c12`, the TGI in the test on KM12 colon, with EKVX NSCLC, in the test with CCRF-CEM leukemia, in the test with OVCAR-3 ovarian and with SK-MEL-2 melanoma was more than 100 µM throughout.

Take `COc1ccc(NC(C)=O)c(C(O)CCNC(C)=O)c1` (stereo not given): the TGI in the test on KM12 colon, in the test on EKVX NSCLC, with CCRF-CEM leukemia, with OVCAR-3 ovarian and in the test with SK-MEL-2 melanoma was more than 100 µM throughout.

`COC(=O)C(COC(=O)/C=C/c1ccc(OC(C)=O)c(OC(C)=O)c1)NC(=O)/C=C/c1ccc(OC(C)=O)c(OC(C)=O)c1` (stereo not given): the TGI is 38.8 µM in the test with KM12 colon; more than 100 µM with EKVX NSCLC; more than 100 µM with CCRF-CEM leukemia; 33.7 µM in the test with OVCAR-3 ovarian; 36.3 µM in the test on SK-MEL-2 melanoma.
